Results on 21 compounds are retold here after patent publication KR20100022620A, “2-(2-옥소-2-페닐에틸설파닐)-벤즈이미다졸-4-카르복스아미드 유도체 또는 이의 약학적으로 허용가능한 염, 이의 제조방법 및 이를 유효성분으로 함유하는 폴리(adp-리보스)폴리머라제-1(parp-1)의 과활성에 의해 유발되는 질환의 예방 또는 치료용 약학적 조성물” (한국화학연구원, priority 2008, dated 2010).

The target in one assay is T1, PARP-1 (Homo sapiens, UniProt P09874).
T1 construct: purchased TREVIGEN 4671-096-K
Description: PARP-1 inhibition (Universal Colorimetric PARP Assay-Histones kit). The settings on record: for IC50: IC50 determined only for drugs inhibiting 50% or more at 10 μM, 0.01 ~10 μM, 0.5U PARP, room temperature, 1 h; for PARP-1 inhibitory effect (in words): judged from Table 2. The class given is biochemical.

Another assay relates to ischemic heart (허혈심장). Description: Antiischemic (cardioprotective) effect in in vivo ischemic heart model of the rat. The settings on record: 1 mg/kg; for reduction of myocardial infarction rate / cardioprotective effect (in words): rat, versus negative control 58.6%; for myocardial infarction rate (IS/AAR, infarct size/area at risk): via femoral vein, male rat, 45 min occlusion, 90 min reperfusion, negative control 58.6%.

T1 sequence (P09874 whole entry): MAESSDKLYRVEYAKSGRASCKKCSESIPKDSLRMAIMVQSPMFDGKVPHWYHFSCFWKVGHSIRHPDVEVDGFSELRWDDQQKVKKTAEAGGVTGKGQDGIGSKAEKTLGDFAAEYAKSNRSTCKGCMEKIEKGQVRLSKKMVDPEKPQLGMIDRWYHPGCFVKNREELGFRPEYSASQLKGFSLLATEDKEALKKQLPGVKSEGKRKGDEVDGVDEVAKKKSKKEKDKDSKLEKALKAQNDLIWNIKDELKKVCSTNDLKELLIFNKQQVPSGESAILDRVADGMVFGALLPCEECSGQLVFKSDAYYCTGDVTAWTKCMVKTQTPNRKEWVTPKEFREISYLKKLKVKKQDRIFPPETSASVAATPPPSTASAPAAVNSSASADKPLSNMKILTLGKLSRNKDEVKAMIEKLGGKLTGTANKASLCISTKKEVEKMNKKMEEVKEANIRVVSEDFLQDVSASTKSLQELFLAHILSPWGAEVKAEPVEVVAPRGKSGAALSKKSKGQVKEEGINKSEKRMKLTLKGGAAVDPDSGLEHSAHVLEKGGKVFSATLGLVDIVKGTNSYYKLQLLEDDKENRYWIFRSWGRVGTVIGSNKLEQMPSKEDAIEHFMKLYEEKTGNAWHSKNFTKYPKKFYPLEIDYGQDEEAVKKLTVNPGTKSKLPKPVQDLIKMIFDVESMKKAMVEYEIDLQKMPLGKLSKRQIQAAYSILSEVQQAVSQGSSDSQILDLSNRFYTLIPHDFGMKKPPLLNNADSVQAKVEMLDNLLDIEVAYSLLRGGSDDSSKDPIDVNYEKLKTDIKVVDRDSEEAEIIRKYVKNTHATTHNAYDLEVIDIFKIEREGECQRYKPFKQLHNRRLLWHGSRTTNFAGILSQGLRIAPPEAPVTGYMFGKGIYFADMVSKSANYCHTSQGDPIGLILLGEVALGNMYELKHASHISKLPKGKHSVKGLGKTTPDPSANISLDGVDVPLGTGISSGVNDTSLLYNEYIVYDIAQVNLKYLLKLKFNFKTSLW

Broadly, the IC50 is the concentration at which inhibition is half-maximal. Turning to `NC(=O)c1cccc2[nH]c(SCC(=O)c3ccc(N4CCCC4)cc3)nc12` [실시예 6, 2-[2-(4-피롤리딘-1-일페닐)-2-옥소-에틸설파닐]-1H-벤즈이미다졸-4-카르복스아미드], the IC50 at PARP-1 is > 10000 nM.

Turning to `NC(=O)c1cccc2[nH]c(SCC(=O)c3cc(Cl)ccc3Cl)nc12` [실시예 1, 2-[2-(2,5-디클로로페닐)-2-옥소-에틸설파닐]-1H-벤즈이미다졸-4-카르복스아미드], at PARP-1, half-maximal inhibition (IC50) was put at 1050 nM.

Turning to `NC(=O)c1cccc2[nH]c(SCC(=O)c3ccccc3)nc12` [실시예 20, 2-[2-페닐-2-옥소-에틸설파닐]-1H-벤즈이미다졸-4-카르복스아미드], on PARP-1, the IC50 was > 10000 nM.

Consider `Cc1ccccc1C(=O)CSc1nc2c(C(N)=O)cccc2[nH]1` [실시예 12, 2-[2-(2-메틸페닐)-2-옥소-에틸설파닐]-1H-벤즈이미다졸-4-카르복스아미드], for which, on PARP-1, the IC50 worked out at 960 nM and the “PARP-1 inhibitory effect (in words)” value is “매우 뛰어난 PARP-1 억제효과”.

Consider `COc1ccc(C(=O)CSc2nc3c(C(N)=O)cccc3[nH]2)cc1` [실시예 14, 2-[2-(4-메톡시페닐)-2-옥소-에틸설파닐]-1H-벤즈이미다졸-4-카르복스아미드], for which the IC50 at PARP-1 worked out at 1940 nM.

As to `COc1cccc(C(=O)CSc2nc3c(C(N)=O)cccc3[nH]2)c1` [실시예 7, 2-[2-(3-메톡시페닐)-2-옥소-에틸설파닐]-1H-벤즈이미다졸-4-카르복스아미드], the IC50 against PARP-1 was determined as 2260 nM.

`NC(=O)c1ccc(C(=O)CSc2nc3c(C(N)=O)cccc3[nH]2)cc1` [실시예 19, 2-[2-(4-카르바모일페닐)-2-옥소-에틸설파닐]-1H-벤즈이미다졸-4-카르복스아미드]: in the assay with ischemic heart (허혈심장), the “reduction of myocardial infarction rate / cardioprotective effect (in words)” value is listed as “우수한 심장보호효과” and the “myocardial infarction rate (IS/AAR, infarct size/area at risk)” value stood at 36.3%. At PARP-1, half-maximal inhibition (IC50) was put at 380 nM and the “PARP-1 inhibitory effect (in words)” value is on record as “매우 뛰어난 PARP-1 억제효과”.

Consider `NC(=O)c1cccc2[nH]c(SCC(=O)c3ccc(N4CCCCC4)cc3)nc12` [실시예 17, 2-[2-(3-피페리딘-1-일페닐)-2-옥소-에틸설파닐]-1H-벤즈이미다졸-4-카르복스아미드], for which the IC50 at PARP-1 was 1400 nM.

On to `NC(=O)c1cccc2[nH]c(SCC(=O)c3ccc(C=O)cc3)nc12` [실시예 21, 2-[2-(4-포르밀페닐)-2-옥소-에틸설파닐]-1H-벤즈이미다졸-4-카르복스아미드], for which, at PARP-1, the IC50 is 750 nM and the “PARP-1 inhibitory effect (in words)” value is recorded as “매우 뛰어난 PARP-1 억제효과”.

On PARP-1, `NC(=O)c1cccc2[nH]c(SCC(=O)c3ccc(Cl)cc3Cl)nc12` [실시예 9, 2-[2-(2,4-디클로로페닐)-2-옥소-에틸설파닐]-1H-벤즈이미다졸-4-카르복스아미드] gave an IC50 of 4750 nM.

Take `COc1ccccc1C(=O)CSc1nc2c(C(N)=O)cccc2[nH]1` [실시예 13, 2-[2-(2-메톡시페닐)-2-옥소-에틸설파닐]-1H-벤즈이미다졸-4-카르복스아미드]: on PARP-1, the midpoint of inhibition, the IC50, lay at 1120 nM.

On to `NC(=O)c1cccc(C(=O)CSc2nc3c(C(N)=O)cccc3[nH]2)c1` [실시예 18, 2-[2-(3-카르바모일페닐)-2-옥소-에틸설파닐]-1H-벤즈이미다졸-4-카르복스아미드], for which, in the assay on ischemic heart (허혈심장), the “reduction of myocardial infarction rate / cardioprotective effect (in words)” value is reported as “우수한 심장보호효과” and the “myocardial infarction rate (IS/AAR, infarct size/area at risk)” value is listed as 37.5%. Besides, on PARP-1, 430 nM corresponded to half-maximal inhibition (IC50) and the “PARP-1 inhibitory effect (in words)” value was “매우 뛰어난 PARP-1 억제효과”.

For `NC(=O)c1cccc2[nH]c(SCC(=O)c3ccc(F)cc3)nc12` [실시예 4, 2-[2-(4-플루오로페닐)-2-옥소-에틸설파닐]-1H-벤즈이미다졸-4-카르복스아미드], on PARP-1, the IC50 stood at 940 nM and the “PARP-1 inhibitory effect (in words)” value is “매우 뛰어난 PARP-1 억제효과”.

Consider `NC(=O)c1cccc2[nH]c(SCC(=O)c3cccc(N4CCCC4)c3)nc12` [실시예 16, 2-[2-(3-피롤리딘-1-일페닐)-2-옥소-에틸설파닐]-1H-벤즈이미다졸-4-카르복스아미드], for which inhibition against PARP-1 was half-maximal at 1200 nM (IC50).

Compound `NC(=O)c1cccc2[nH]c(SCC(=O)c3ccccc3F)nc12` [실시예 10, 2-[2-(2-플루오로페닐)-2-옥소-에틸설파닐]-1H-벤즈이미다졸-4-카르복스아미드] returned an IC50 at PARP-1 of 1220 nM.

For the compound `NC(=O)c1cccc2[nH]c(SCC(=O)c3cccc(F)c3)nc12` [실시예 8, 2-[2-(3-플루오로페닐)-2-옥소-에틸설파닐]-1H-벤즈이미다졸-4-카르복스아미드], on PARP-1, the IC50 was found to be 960 nM and the “PARP-1 inhibitory effect (in words)” value is listed as “매우 뛰어난 PARP-1 억제효과”.

For `NC(=O)c1cccc2[nH]c(SCC(=O)c3ccc(Br)cc3)nc12` [실시예 2, 2-[2-(4-브로모페닐)-2-옥소-에틸설파닐]-1H-벤즈이미다졸-4-카르복스아미드], in the assay with ischemic heart (허혈심장), the “reduction of myocardial infarction rate / cardioprotective effect (in words)” value was “음성대조군보다 유의성 있는 감소” and the “myocardial infarction rate (IS/AAR, infarct size/area at risk)” value is on record as 44.1%. Further, at PARP-1, the IC50 amounted to 710 nM and the “PARP-1 inhibitory effect (in words)” value was “매우 뛰어난 PARP-1 억제효과”.

On to `NC(=O)c1cccc2[nH]c(SCC(=O)c3cccc(Br)c3)nc12` [실시예 11, 2-[2-(3-브로모페닐)-2-옥소-에틸설파닐]-1H-벤즈이미다졸-4-카르복스아미드], for which it took 2230 nM to reach half-maximal inhibition at PARP-1 (IC50).

With `Cc1cccc(C(=O)CSc2nc3c(C(N)=O)cccc3[nH]2)c1` [실시예 15, 2-[2-(3-메틸페닐)-2-옥소-에틸설파닐]-1H-벤즈이미다졸-4-카르복스아미드], at PARP-1, the IC50 came out at 1920 nM.

Compound `Cc1ccc(C)c(C(=O)CSc2nc3c(C(N)=O)cccc3[nH]2)c1` [실시예 3, 2-[2-(2,5-디메틸페닐)-2-옥소-에틸설파닐]-1H-벤즈이미다졸-4-카르복스아미드] showed an IC50 on PARP-1 of 1330 nM.

`CN(C)c1ccc(C(=O)CSc2nc3c(C(N)=O)cccc3[nH]2)cc1` [실시예 5, 2-[2-(4-디메틸아미노페닐)-2-옥소-에틸설파닐]-1H-벤즈이미다졸-4-카르복스아미드]: the IC50 against PARP-1 is > 10000 nM.
